Laboratory results taken from paper PMC11259170, “Small-molecule probe for IBD risk variant GPR65 I231L alters cytokine signaling networks through positive allosteric modulation” (Science Advances, 2024).
Read-outs that look alike come from different tables or passages of the source.

Key:
hGPR65 [1] = biological target: T1, hGPR65 (Homo sapiens, UniProt Q8IYL9); assay: cAMP detection in HeLa expression cell line, hGPR65; assay type: cell-based; conditions: for Emax: HeLa, relative to 100uM forskolin (100%) and DMSO (0%), read-out: hGPR Max Activity %; for activity for hGPR65 among prioritized molecules: 1.56 μM
T1 construct: expressed in transfected cells; host or cells: HeLa (ATCC CCL-2), lentiviral transduction, pLX317
In short: (§1)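 Compound was dispensed from a 10 mM DMSO stock, and puromycin-selected HeLa lines carrying lentiviral V5-tagged receptor were added at 1500 cells/well in pH 7.2 stimulation buffer. After 30 min stimulation at room temperature, cells were lysed and detection ran 1 h in the dark before cAMP TR-FRET reading.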

mGPR65 = biological target: T2, mGPR65 (Mus musculus, UniProt Q61038); assay: cAMP detection in HeLa expression cell line, mGPR65; assay type: cell-based; conditions: for Emax: HeLa, relative to 100uM forskolin (100%) and DMSO (0%), read-out: mGPR Max Activity %; for EC50: mGPR EC50 (uM); for cAMP activity, mGPR65 / activity for mGPR65 among prioritized molecules: pH 7.2; for activity for mGPR65 among prioritized molecules: 1.56 μM
T2 construct: expressed in transfected cells; host or cells: HeLa (ATCC CCL-2), lentiviral transduction, pLX317
In short: as §1

human GPR4 (hGPR4) = biological target: T3, human GPR4 (hGPR4) (Homo sapiens, UniProt P46093); assay: cAMP detection in HeLa expression cell line, hGPR4; assay type: cell-based; conditions: highest concentration tested
T3 construct: expressed in transfected cells; host or cells: HeLa (ATCC CCL-2), lentiviral transduction, pLX317
Protocol: HeLa stable expression cell lines were produced by lentiviral transduction. Briefly, lentiviral plasmids for each GPCR with a C-terminal V5 Tag ([…]) were made in a pLX317 backbone using competent Escherichia coli (New England Biolabs, C3050H). Lenti-X 293 T (Takara, 632810) cells were transfected with the lentiviral plasmids to produce virus. Low-passage HeLa cells (American Type Culture Collection, CCL-2) were then transduced with lentivirus. After 48 hours, HeLa cells were cultured under selection with puromycin (3 μg/ml) and allowed to recover and expand before storing stocks in liquid nitrogen.
cAMP was measured in cells using the Lance Ultra cAMP Kit. HeLa cells were cultured under puromycin (3 μg/ml) selection. One day before the experiment, cells were seeded in T75 flasks and allowed to adhere overnight. On the day of the experiment, cells were washed twice with Dulbecco’s PBS and lifted using prewarmed 1× versene solution (Gibco, 15040066). Cells were counted in HBSS (Gibco, 14025092) and then resuspended in stimulation buffer prepared according to the manufacturer’s instructions and adjusted to pH 7.2 using 1 M sodium hydroxide. Cells were added to the plate at a density of 1500 cells per well in white opaque 384-well assay ready microplates containing 100 nl of 10 mM compound in DMSO. Cells were stimulated for 30 min at RT, then lysed and incubated with detection reagents for 1 hour in the dark at RT. Plates were read on BMG Labtech PHERAstar FSX (excitation, 337 nm; emission, 620 and 665 nm). Data analysis was performed using GraphPad Prism.

Lipophilicity (logD) = assay type: physicochemical; conditions: pH 7.4; pH7.4; read-out: LogD (pH7.4)
[2] = Solubility in phosphate buffer; assay type: physicochemical; conditions: read-out: Solubility
[3] = tested on: GFP-expressing HeLa cells; assay: cAMP detection in HeLa expression cell line, GFP control; assay type: cell-based, human; conditions: Homo sapiens, HeLa, NA = no activity; for Emax: relative to 100uM forskolin (100%) and DMSO (0%), read-out: GFP Max Activity %
In short: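 TR-FRET cAMP read-out (Lance Ultra; ex 337 nm, em 620 and 665 nm) after 1 h detection in the dark, following a 30 min RT stimulation of 1500 cells per well in pH 7.2 stimulation buffer with compound supplied as 10 mM DMSO stock. Cells: lentivirally transduced HeLa lines carrying V5-tagged GPCR or GFP, kept under 3 μg/ml puromycin.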

hGPR65-SmBiT = biological target: T4, hGPR65-SmBiT (Homo sapiens, UniProt Q8IYL9); assay: Nano-BiT target engagement, LgBiT-mGs recruitment to hGPR65-SmBiT in Expi293F cells; assay type: cell-based; conditions: isoproterenol treatment
T4 construct: expressed in transfected cells; host or cells: Expi293F (Gibco), transient transfection
Protocol: Target engagement was measured in Expi293F (Gibco, 100044202) cells using the Nano-Glo Live Cell Assay System (Promega, N2011). Nano-BiT plasmids were cloned from GPR65-, GPR4-, and GPR68-Tango plasmids. GPR65-Tango (Addgene plasmid # 66370; http://n2t.net/addgene:66370; RRID:Addgene_66370), GPR4-Tango (Addgene plasmid # 66358; http://n2t.net/addgene:66358; RRID:Addgene_66358), and GPR68-Tango (Addgene plasmid # 66371; http://n2t.net/addgene:66371; RRID:Addgene_66371) were gifts from Bryan Roth. Expi293F cells were transfected 1 day before kinetics with 500 ng of each plasmid using ExpiFectamine 293 Transfection Kit (Gibco, A14525). After 24 hours, cells were collected, washed, and resuspended in room temperature 0.1% PBS-BSA, adjusted to pH 7.4 using 1 M NaOH. Cells were transferred to white opaque 96-well microplates (100 μl per well, PerkinElmer, 6005290), followed by addition of the Nano-Glo Live Cell Reagent (25 μl per well). Baseline luminescence was measured for 10 cycles (1 cycle = 90 s) before adding compounds. All luminescence measurements were made on BMG Labtech PHERAstar FSX. Data analysis was performed using GraphPad Prism.

hGPR65 [4] = biological target: T1, hGPR65; assay: cAMP detection (Lance Ultra), GPR65 KO HeLa reconstituted with hGPR65; 21K screen dose confirmation; assay type: cell-based; conditions: HeLa GPR65 KO + hGPR65, pH 7.1, 30 min, normalized to DMSO and 100 μM forskolin; read-out: WT EC50
Protocol: (§2) The Lance Ultra cAMP Kit (PerkinElmer, TRF0264) was used for cAMP detection, and included the following reagents: ULight anti-cAMP antibody, Eu-cAMP tracer, 7.5% BSA Stabilizer solution, and cAMP detection buffer. Stimulation buffer was prepared as described by the kit manufacturer as follows: Hanks buffered saline solution (HBSS, Life Technologies, 14025-126) containing 0.5 mM IBMX (3-isobutyl-1-methylxanthine, Sigma-Aldrich, I7018) and buffered with 1 M Hepes (15630-080). Stimulation buffer was then adjusted to pH 7.1 using 12 N HCl. HeLa cells were lifted using Versene and then suspended at 2.5 × 10^5 cells/ml in stimulation buffer. Cells were then plated at 20 μl per well (5000 cells per well) in white, opaque OptiPlate 384-well MicroPlates (PerkinElmer, 6007299) using a Thermo Fisher Scientific Combi liquid dispenser. Compounds, stored at 5 mM in DMSO for the primary screen, or in a range of concentrations from 39 μM to 20 mM for dose curves, were transferred by the CyBio CyBi-Well Vario pin transfer tool with 100-nl pins (V&P FP1NS50H, 50-nl slot, 0.457-mm diameter, hydrophobic coated), into each assay well, 100 nl per well for a final assay concentration of 25 μM for the primary screen, or 195 nM to 100 μM for dose curves. Assay plates were then incubated at RT for 30 min. Eu-cAMP tracer was diluted 1:33 into detection buffer and the final solution then distributed into assay wells, 5 μl per well. ULight anti-cAMP antibody was diluted 1:100 into detection buffer, then distributed into assay wells, also 5 μl per well. Assay plates were then incubated at RT in the dark for 1 hour. Eu-cAMP tracer and Förster resonance energy transfer (FRET) emissions were then read using a PerkinElmer EnVision Multimode plate reader (ENVISION21040010), exciting each well at 320 nm [UV2 (TRF) 320 filter] and reading emissions at 615 nm (Europium 615 filter) and 665 nm (APC665 filter). Data analysis was performed using Genedata Screener and GraphPad Prism.
(§3) HeLa KO cell lines were generated using the px330 plasmid CRISPR system as previously described ([18]). Briefly, HeLa cells were transfected with a Cas9 vector containing a gene-specific single-guide RNA to target the GPR65 coding exon. Forty-eight to 72 hours after transfection, single clones were obtained through limiting dilution and then sequenced to validate the KO. Reconstituted cell lines were produced by transducing KO cells with empty lentivirus or lentivirus containing hGPR65 or mGPR65. After 48 hours, cells were treated with puromycin (3 μg/ml; InvivoGen, ant-pr-1) and resistant cells were used in experiments.

[5] = tested on: GPR65 KO HeLa cells + pLX empty vector; assay: cAMP detection, GPR65 KO HeLa + empty pLX vector (null control); assay type: cell-based, human; conditions: HeLa GPR65 KO + pLX, pH 7.1, 30 min, normalized to DMSO and 100 μM forskolin
Protocol: as §2, §3

[6] = 1st hGPR column pair, NA = no activity
[7] = 2nd hGPR column pair, NA = no activity
[8] = hGPR EC50 (uM), NA = no activity
[9] = 2nd mGPR column pair, NA = no activity
[10] = first pair of columns, pH 7.2, 30 min
[11] = second pair of columns, pH 7.2, 30 min

T2 sequence (Q61038 whole entry): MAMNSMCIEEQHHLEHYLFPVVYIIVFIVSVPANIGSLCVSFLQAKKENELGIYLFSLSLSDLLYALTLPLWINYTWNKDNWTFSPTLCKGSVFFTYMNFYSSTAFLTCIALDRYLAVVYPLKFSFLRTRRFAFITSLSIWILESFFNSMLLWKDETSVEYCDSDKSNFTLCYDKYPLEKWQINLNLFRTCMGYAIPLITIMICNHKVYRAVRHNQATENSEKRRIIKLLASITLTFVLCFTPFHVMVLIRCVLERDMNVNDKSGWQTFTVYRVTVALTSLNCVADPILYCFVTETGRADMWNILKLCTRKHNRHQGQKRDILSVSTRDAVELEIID
T1 sequence (Q8IYL9 whole entry): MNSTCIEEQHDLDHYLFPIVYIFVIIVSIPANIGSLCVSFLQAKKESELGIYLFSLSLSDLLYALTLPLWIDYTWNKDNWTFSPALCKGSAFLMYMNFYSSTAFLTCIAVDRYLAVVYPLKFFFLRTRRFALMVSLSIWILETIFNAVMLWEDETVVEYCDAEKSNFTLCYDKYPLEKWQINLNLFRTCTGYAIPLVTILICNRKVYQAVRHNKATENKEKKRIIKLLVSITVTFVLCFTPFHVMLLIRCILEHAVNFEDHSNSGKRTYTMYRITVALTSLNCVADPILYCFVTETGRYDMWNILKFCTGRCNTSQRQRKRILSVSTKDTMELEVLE
T4 sequence (Q8IYL9 whole entry): as above
T3 sequence (P46093 whole entry): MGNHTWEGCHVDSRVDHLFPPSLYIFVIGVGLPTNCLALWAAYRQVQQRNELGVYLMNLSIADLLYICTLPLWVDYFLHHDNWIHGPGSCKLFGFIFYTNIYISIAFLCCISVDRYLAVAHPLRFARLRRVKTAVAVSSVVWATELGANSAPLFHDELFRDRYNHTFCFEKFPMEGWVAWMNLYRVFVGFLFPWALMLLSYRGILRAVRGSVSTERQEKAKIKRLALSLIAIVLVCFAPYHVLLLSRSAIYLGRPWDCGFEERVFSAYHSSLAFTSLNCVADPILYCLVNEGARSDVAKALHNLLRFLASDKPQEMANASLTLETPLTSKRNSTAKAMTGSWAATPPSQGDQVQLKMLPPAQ

| Structure (SMILES) | Emax (hGPR65 [1]; [6]) | Emax (hGPR65 [1]; [7]) | EC50 (hGPR65 [1]; [8]) | EC50 (hGPR65 [1]; hGPR EC50 (uM), pH 7.2, 30 min) | EC50 (hGPR65 [1]; hGPR EC50, NA = no activity) | EC50 (hGPR65 [1]; hGPR EC50, pH 7.2, 30 min) | cAMP activity, hGPR65 (hGPR65 [1]; pH 7.2) | Emax (mGPR65; [9]) | Emax (mGPR65; NA = no activity) | EC50 (mGPR65; [9]) | EC50 (mGPR65; [10]) | EC50 (mGPR65; [11]) | EC50 (mGPR65; NA = no activity) | cAMP activity, mGPR65 (mGPR65) | EC50 (hGPR65 [4]) | EC50 [5] | also measured |
| --- | --- | --- | --- | --- | --- | --- | --- | --- | --- | --- | --- | --- | --- | --- | --- | --- | --- |
| COCc1ccc(-c2cc(O)n3ncc(C(=O)Nc4ccc(C(C)C)cc4)c3n2)cc1 [BRD2166, COCc1ccc(cc1)-c1cc(O)n2ncc(C(=O)Nc3ccc(cc3)C(C)C)c2n1] | 75% | 73.7% | 2.08 µM | 2.94 µM | 2.12 µM | 2.85 µM | at least 40% | 31.2% | 39.3% | 0.347 µM | 0.618 µM | 0.372 µM | 0.362 µM | at least 40% |  |  | cAMP production relative to BRD2813, hGPR65 (hGPR65 [1]; pH 7.2): little effect on cAMP production; cAMP relative to DMSO in the hGPR4 cells (human GPR4 (hGPR4)): decrease in cAMP |
| Cc1ccc(NC(=O)c2cnn3c(O)cc(-c4ccc(COC(C)C)cc4)nc23)cc1F [BRD5078, O=C(NC1=CC=C(C)C(F)=C1)C2=C3N(N=C2)C(O)=CC(C4=CC=C(COC(C)C)C=C4)=N3] | 80.5% | 73.3% | 0.229 µM | 0.347 µM | 0.351 µM | 0.264 µM | at least 40% | 51.5% | 53.6% | 0.944 µM | 0.477 µM | 0.29 µM | 0.332 µM | at least 40% |  |  | logD (Lipophilicity (logD)): > 4.96; activity for hGPR65 (hGPR65 [1]): strong activity for hGPR65; activity for hGPR65 among prioritized molecules (hGPR65 [1]; pH 7.2): highest activity; activity for mGPR65 among prioritized molecules (mGPR65): highest activity; solubility [2]: < 1.56 µM |
| Cc1ccc(NC(=O)c2cnn3c(O)cc(-c4ccc(COC(C)C)cc4)nc23)cc1Cl [BRD5079, O=C(NC1=CC=C(C)C(Cl)=C1)C2=C3N(N=C2)C(O)=CC(C4=CC=C(COC(C)C)C=C4)=N3] | 81.1% | 82.5% | 0.428 µM | 0.348 µM | 0.564 µM | 0.417 µM | at least 40% | 48.8% | 57.5% | 0.276 µM | 0.345 µM | 0.591 µM | 0.604 µM | at least 40% |  |  | EC50 ([3]; 1st GFP column pair): 4.31 µM; Emax ([3]; 1st GFP column pair): 1.78%; EC50 ([3]; 2nd GFP column pair): 1.21 µM; Emax ([3]; 2nd GFP column pair): 2.88%; logD (Lipophilicity (logD)): > 4.23; activity for hGPR65 (hGPR65 [1]): strong activity for hGPR65; activity for hGPR65 among prioritized molecules (hGPR65 [1]; pH 7.2): highest activity; activity for mGPR65 among prioritized molecules (mGPR65): highest activity; solubility [2]: < 1.56 µM |
| CC(C)NCC(O)c1ccc(O)c(O)c1 (centres unmarked) [isoproterenol, reference compound] |  |  |  |  |  |  |  |  |  |  |  |  |  |  |  |  | luminescence in hGPR65-SmBiT/LgBiT-mGs cells (hGPR65-SmBiT): did not elicit a change in luminescence |
| Cn1cc(C(=O)c2ccc(F)cc2)c2ccnc(Cl)c21 [BRD-K96864761-001-02-4] |  |  |  |  |  |  |  |  |  |  |  |  |  |  | 48.1 µM | 44.5 µM |  |
| COC(=O)c1cc2c(s1)-c1cc(F)ccc1OC2 [BRD-K56384677-001-09-9] |  |  |  |  |  |  |  |  |  |  |  |  |  |  | 90 µM | 94.3 µM |  |
| O=C(c1ccco1)N1CCN(c2ccnc3cc(Cl)ccc23)CC1 [BRD-K27679143-001-08-6] |  |  |  |  |  |  |  |  |  |  |  |  |  |  | 18.3 µM | 15.6 µM |  |
| CCc1cc(CC)c2sc3ccccc3c(=O)c2c1 [BRD-K51520769-001-02-7] |  |  |  |  |  |  |  |  |  |  |  |  |  |  | > 100 µM | > 100 µM |  |
| CC(Sc1nc2ncnc(N)c2[nH]1)C(=O)O (centres unmarked) [BRD-A18106607-001-02-5] |  |  |  |  |  |  |  |  |  |  |  |  |  |  | 6 µM | 6.4 µM |  |
| O=C(O)C1CCN(c2ncnc3ccccc23)CC1 [BRD-K45393828-001-02-7] |  |  |  |  |  |  |  |  |  |  |  |  |  |  | 54.4 µM | 39.5 µM |  |
